Species: Homo sapiens
Experiment: Compound was evaluated for the inhibition of platelet aggregation, assessed turbidimetrically in citreated human platelet rich plasma (PRP); NE means not effective; call rule not given here
Type: functional, organism-based

SMILES | IC50
O=C(O)COCCCC[C@H]1[C@H](F)CC[C@@H]1NS(=O)(=O)c1ccc(Cl)c(Cl)c1 | Not Active
O=C(O)CC/C=C\C[C@@H]1[C@@H](CNS(=O)(=O)c2ccc(Cl)cc2)CC[C@@H]1F | Not Active
Cc1ccc(S(=O)(=O)NC[C@H]2CC[C@H](F)[C@@H]2C/C=C\CCC(=O)O)cc1 | Not Active
O=C(O)CCC/C=C\CC1=CCC[C@@H]1NS(=O)(=O)c1ccc(Cl)c(Cl)c1 | Not Active
O=C(O)CCC/C=C\CC1=CCC[C@@H]1NS(=O)(=O)c1ccc(Cl)cc1 | Not Active

Further lines, results first:

IC50 | SMILES
Not Active | O=C(O)COCCCCC1=CCC[C@@H]1NS(=O)(=O)c1ccc(Cl)cc1
Not Active | O=C(O)CCC/C=C\CC1=CCC[C@@H]1NS(=O)(=O)c1ccc(F)cc1F
Not Active | O=C(O)COCCCC[C@H]1[C@H](F)CC[C@@H]1NS(=O)(=O)c1ccc(Cl)cc1

These compounds were tested against T1, Thromboxane A2 receptor (Homo sapiens) (UniProt P21731) (assay: Thromboxane A2 receptor binding affinity was evaluated, which is expressed as competition factor (CF = (IC50-test) / (IC50-standard); not parallel).
T1 sequence (whole entry): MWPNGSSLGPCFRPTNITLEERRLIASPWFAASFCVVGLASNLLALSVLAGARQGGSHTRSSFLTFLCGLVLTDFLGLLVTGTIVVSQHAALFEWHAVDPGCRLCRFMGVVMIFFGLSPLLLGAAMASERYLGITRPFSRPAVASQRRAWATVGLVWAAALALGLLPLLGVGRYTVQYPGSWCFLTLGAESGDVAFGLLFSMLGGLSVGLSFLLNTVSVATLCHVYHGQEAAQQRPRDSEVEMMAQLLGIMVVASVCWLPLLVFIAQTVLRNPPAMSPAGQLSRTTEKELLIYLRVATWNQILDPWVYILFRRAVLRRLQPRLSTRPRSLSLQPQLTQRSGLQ

SMILES | CF
O=C(O)CC/C=C\C[C@@H]1[C@@H](CNS(=O)(=O)c2ccc(Cl)cc2)CC[C@@H]1F | 1.8
Cc1ccc(S(=O)(=O)NC[C@H]2CC[C@H](F)[C@@H]2C/C=C\CCC(=O)O)cc1 | 6
O=C(O)COCCCCC1=CCC[C@@H]1CNS(=O)(=O)c1ccc(F)cc1 | 0.5
O=C(O)CC/C=C\C[C@@H]1[C@@H](CNS(=O)(=O)c2ccc(F)cc2)CC[C@H]1F | 11
O=C(O)COCCCC[C@H]1[C@H](F)CC[C@@H]1NS(=O)(=O)c1ccc(F)cc1 | 2.7

Next, values leading:

CF | SMILES
9.1 | O=C(O)COCCCC[C@H]1[C@H](F)CC[C@@H]1NS(=O)(=O)c1ccccc1
6.7 | O=C(O)COCCCC[C@@H]1[C@@H](CNS(=O)(=O)c2ccc(F)cc2)CC[C@H]1F
3.5 | Cc1ccc(S(=O)(=O)N[C@H]2CC[C@@H](F)[C@@H]2CCCCOCC(=O)O)cc1

The compounds below were run against T1, Thromboxane A2 receptor (Homo sapiens) (assay: Thromboxane A2 receptor binding affinity was evaluated as competition factor (CF = (IC50-test) / (IC50-standard)).

CF | SMILES
1.4 | O=C(O)CC/C=C\C[C@H]1[C@H](F)CC[C@@H]1NS(=O)(=O)c1ccc(Cl)c(Cl)c1

The compounds below were run against T1, Thromboxane A2 receptor (Homo sapiens) (assay: Thromboxane A2 receptor binding affinity was evaluated, which is expressed as competition factor (CF = (IC50-test) / (IC50-standard)).

SMILES | CF
O=C(O)CCC/C=C\C[C@H]1[C@H](F)CC[C@@H]1NS(=O)(=O)c1ccc(Cl)cc1 | 0.3
O=C(O)COCCCC[C@H]1[C@H](F)CC[C@@H]1NS(=O)(=O)c1ccc(Cl)c(Cl)c1 | 2.3
O=C(O)COCCCCC1=CCC[C@@H]1NS(=O)(=O)c1ccccc1 | 26
O=C(O)CCC/C=C\CC1=CCC[C@@H]1NS(=O)(=O)c1ccc(F)cc1 (stereo in doubt) | 1.5
O=C(O)CCC/C=C\C[C@@H]1[C@@H](CNS(=O)(=O)c2ccc(F)cc2)CC[C@H]1F | 50
O=C(O)COCCCC[C@H]1[C@H](F)CC[C@@H]1NS(=O)(=O)c1ccccc1[N+](=O)[O-] | 330
O=C(O)CC/C=C\C[C@H]1[C@H](F)CC[C@@H]1NS(=O)(=O)c1ccc(Cl)cc1 | 1.3
O=C(O)CC/C=C\C[C@@H]1[C@@H](CNS(=O)(=O)c2ccc(F)cc2)CC[C@H]1F (stereo in doubt; form 2) | 300
O=C(O)CCC/C=C\C[C@H]1[C@H](F)CC[C@@H]1NS(=O)(=O)c1ccccc1[N+](=O)[O-] | 10
O=C(O)CCCCCC[C@H]1[C@H](F)CC[C@@H]1NS(=O)(=O)c1ccc(F)cc1 | 7.5
Cc1ccc(S(=O)(=O)N[C@H]2CC[C@@H](F)[C@@H]2C/C=C\CCC(=O)O)cc1 | 5.1
O=C(O)CC/C=C\C[C@@H]1[C@@H](CNS(=O)(=O)c2ccc(F)cc2)CC[C@H]1F (stereo in doubt; form 1) | 300
O=C(O)CC/C=C\C[C@@H]1[C@@H](CNS(=O)(=O)c2ccc(Cl)cc2)CC[C@H]1F | 40
Cc1ccc(S(=O)(=O)N[C@H]2CC[C@@H](F)[C@@H]2C/C=C\CCCC(=O)O)cc1 | 1.5
O=C(O)COCCCCC1=CCC[C@@H]1NS(=O)(=O)c1ccccc1[N+](=O)[O-] | 130
Cc1ccc(S(=O)(=O)NC[C@H]2CC[C@@H](F)[C@@H]2C/C=C\CCC(=O)O)cc1 | 154
O=C(O)CCC/C=C\CC1=CCC[C@@H]1NS(=O)(=O)c1ccc(Cl)c(Cl)c1 | 1.1
O=C(O)CCC/C=C\CC1=CCC[C@@H]1NS(=O)(=O)c1ccc(Cl)cc1 | 0.3
O=C(O)CCC/C=C\CC1=CCC[C@@H]1NS(=O)(=O)c1ccccc1 | 3.5
O=C(O)CCCC=CC[C@H]1[C@H](F)CC[C@@H]1NS(=O)(=O)c1ccc(F)cc1 | 1.5
O=C(O)CCCCC[C@@H]1[C@@H](CNS(=O)(=O)c2ccc(F)cc2)CC[C@H]1F | 380
O=C(O)CC/C=C/C[C@H]1[C@H](F)CC[C@@H]1NS(=O)(=O)c1ccc(F)cc1F | 6.6
O=C(O)CCC/C=C\CC1=CCC[C@@H]1NS(=O)(=O)c1ccc2ccccc2c1 | 0.3

The remaining lines, values ahead:

CF | SMILES
0.5 | O=C(O)CCC/C=C\C[C@H]1[C@H](F)CC[C@@H]1NS(=O)(=O)c1ccc(Cl)c(Cl)c1
13 | O=C(O)COCCCCC1=CCC[C@@H]1NS(=O)(=O)c1ccc(F)cc1
40 | O=C(O)CC/C=C\CC1=CCC[C@@H]1NS(=O)(=O)c1ccccc1[N+](=O)[O-]
7.4 | Cc1ccc(S(=O)(=O)N[C@H]2CCC=C2C/C=C\CCC(=O)O)cc1
7.6 | O=C(O)COCCCCC1=CCC[C@@H]1NS(=O)(=O)c1ccc(Cl)c(Cl)c1
560 | O=C(O)CCCC=CCC1=CCC[C@@H]1NS(=O)(=O)c1cccc2cccnc12
2.8 | O=C(O)CC/C=C\CC1=CCC[C@@H]1NS(=O)(=O)c1ccc(Cl)cc1
1.1 | O=C(O)CCC/C=C\C[C@H]1[C@H](F)CC[C@@H]1NS(=O)(=O)c1ccc(F)cc1F
2.6 | O=C(O)COCCCCC1=CCC[C@@H]1NS(=O)(=O)c1ccc(Cl)cc1
10 | O=C(O)CC/C=C\C[C@H]1[C@H](F)CC[C@@H]1NS(=O)(=O)c1ccccc1
260 | O=C(O)CCCCCC[C@@H]1[C@@H](CNS(=O)(=O)c2ccc(F)cc2)CC[C@H]1F
30 | O=C(O)COCCCC[C@H]1[C@H](F)CC[C@@H]1NS(=O)(=O)c1ccc(F)cc1F
370 | O=C(O)CC/C=C\C[C@H]1[C@H](F)CC[C@@H]1NS(=O)(=O)c1ccccc1[N+](=O)[O-]
1.5 | Cc1ccc(S(=O)(=O)N[C@H]2CCC=C2C/C=C\CCCC(=O)O)cc1
5.5 | O=C(O)CC/C=C\CC1=CCC[C@@H]1NS(=O)(=O)c1ccc(F)cc1
4 | O=C(O)CCC/C=C\C[C@H]1[C@H](F)CC[C@@H]1NS(=O)(=O)c1ccccc1
14 | O=C(O)CC/C=C\CC1=CCC[C@@H]1NS(=O)(=O)c1ccc(F)cc1F

CF | SMILES
22 | O=C(O)COCCCCC1=CCC[C@@H]1NS(=O)(=O)c1ccc(F)cc1F
17 | O=C(O)CCC/C=C\CC1=CCC[C@@H]1CNS(=O)(=O)c1ccc(F)cc1
1.5 | O=C(O)CCC/C=C\CC1=CCC[C@@H]1NS(=O)(=O)c1ccc(F)cc1F
21 | O=C(O)CC/C=C\CC1=CCC[C@@H]1CNS(=O)(=O)c1ccc(F)cc1
11 | O=C(O)CC/C=C\C[C@@H]1[C@@H](CNS(=O)(=O)c2ccc(F)cc2)CC[C@@H]1F
0.8 | O=C(O)COCCCC[C@H]1[C@H](F)CC[C@@H]1NS(=O)(=O)c1ccc(Cl)cc1
1.5 | O=C(O)CCC/C=C\CC1=CCC[C@@H]1NS(=O)(=O)c1ccc(F)cc1 (stereo in doubt; 3d)
12 | O=C(O)CC/C=C\CC1=CCC[C@@H]1NS(=O)(=O)c1ccccc1
1.5 | O=C(O)CCC/C=C\C[C@H]1[C@H](F)CC[C@@H]1NS(=O)(=O)c1ccc(F)cc1
0.3 | O=C(O)CCC/C=C\C[C@H]1[C@H](F)CC[C@@H]1NS(=O)(=O)c1ccc2ccccc2c1
4.3 | O=C(O)CC/C=C\C[C@H]1[C@H](F)CC[C@@H]1NS(=O)(=O)c1ccc(F)cc1
13 | O=C(O)CC/C=C\CC1=CCC[C@@H]1NS(=O)(=O)c1ccc(Cl)c(Cl)c1
6.6 | O=C(O)CCC/C=C\CC1=CCC[C@@H]1NS(=O)(=O)c1ccccc1[N+](=O)[O-]
340 | O=C(O)CCC/C=C\C[C@H]1[C@H](F)CC[C@@H]1NS(=O)(=O)c1cccc2cccnc12
2.7 | O=C(O)CCCCCCC1=CCC[C@@H]1NS(=O)(=O)c1ccc(F)cc1
11 | Cc1ccc(S(=O)(=O)N[C@H]2CCC=C2CCCCOCC(=O)O)cc1
